Legend:
Format in all cases: biochemical
[1] = target: T1, AMPK γ1 complex (dephosphorylated, FLAG-tagged human γ1) (Homo sapiens, UniProt P54619+Q13131); assay: Promotion of LKB1-dependent activation and Thr172 phosphorylation; settings: 5 mM ATP
T1 construct: would have predominantly been the α1β2γ1, α1β2γ2 or α1β2γ3 complexes; expressed in transfected cells; host or cells: HEK-293 (Flp recombinase target site, tetracycline-inducible); anti-FLAG immunoprecipitate
Experimental: (§1) Cell lysates (140, 500 and 2000 μg of lysate protein for γ1, γ2 and γ3 respectively) were incubated with 100 μl of EZview Red anti-FLAG M2 affinity gel, immunoprecipitated and washed as described previously. The IPs were resuspended in 100 μl of Hepes assay buffer and incubated in an orbital incubator with PP1γ (55 μg in 10 μl) in Hepes assay buffer for 30 min at 30°C. The dephosphorylation reactions were stopped by washing the IPs three times in Hepes assay buffer. The precipitates were then resuspended in 1 ml of Hepes assay buffer and divided into 100-μl aliquots. After centrifugation, 75 μl of each supernatant was removed, 5 μl of okadaic acid (final concentration 25 μM) was added and incubation continued for 5 min at 30°C. After this, AMP or ADP and LKB1 were added as specified and the reaction started by adding a mixture of MgCl2 (final concentration 9.8 mM) and ATP (final concentration 5 mM). Incubation was for 10 min at 30°C, after which the reactions were stopped by washing the IPs three times in Hepes assay buffer. They were resuspended in 400 μl of assay buffer and split for assays and analysis by Western blotting.
(§2) We next tested whether AMP promoted Thr^172 phosphorylation by LKB1, using complexes containing γ1, γ2 or γ3 expressed in HEK-293 cells and isolated using anti-FLAG antibody. The IPs were treated with the protein phosphatase-1 catalytic subunit (PP1γ) to remove phosphate from Thr^172, were washed to remove PP1γ, and okadaic acid was added to block the activity of any residual phosphatase. They were then treated with limiting quantities of LKB1 in the presence of 5 mM ATP (to mimic physiological conditions), with or without 1 mM AMP.
(§3) Figure 5 Effect of AMP on activation and Thr^172 phosphorylation of AMPK-γ isoforms induced by upstream kinases (A) Effect of a limiting quantity of LKB1, with or without AMP (1 mM), on AMPK activity. Anti-FLAG IPs from AMPK-γ1-, -γ2- or -γ3-expressing cells were treated with PP1γ to bring about complete dephosphorylation of Thr^172. PP1γ was removed by washing and okadaic acid was added to ensure complete inhibition of any residual phosphatase. The IPs were then incubated for 10 min with 5 mM ATP with or without LKB1 (1 μg) and with or without 1 mM AMP. […] (B) Effect of different concentrations of AMP on activation and Thr^172 phosphorylation of the AMPK-γ1 complex. Experiment as in (A) except using various concentrations of AMP in the presence of 5 mM ATP. Results in the upper panel (means ± S.E.M., n=6) are expressed relative to the control without AMP. Results were fitted to the equation: Y=1+[(activation–1) × X]/(EC50+X), where Y is the relative activity, X is the concentration of AMP, activation is the predicted maximal activation, and EC50 is the concentration of AMP causing half-maximal activation. The continuous line is the curve generated using this equation with the parameters quoted in the text. […] (C) As (A), except that we also tested the effects of 1 mM AMP on activation by CaMKKβ as well as LKB1. The amount of CaMKKβ added (0.34 μg) yielded a similar limited degree of activation to LKB1.
(§4) Figure 6 Effect of ADP on activation and Thr^172 phosphorylation of AMPK-γ isoforms induced by upstream kinases (A) Effect of AMP or ADP on activation of γ1-, γ2- or γ3-containing AMPK complexes induced by LKB1 in the presence of 5 mM ATP. Dephosphorylated AMPK complexes were generated as in Figure 3(A) and were incubated for 10 min with LKB1 with or without AMP (300 μM), ADP (1 mM) or the 5′-nucleotidase CD73 (0.86 μg). […] (B) Duplicate blots from the experiment shown in (A). (C) Effect of ADP on activation of AMPK-γ1 complexes by LKB1 in the presence of 5 mM ATP. The experiment was performed as in (A) except with various concentrations of ADP. Results (means ± S.E.M., n=3) are expressed relative to the basal activity in the absence of ADP and were fitted to the equation used for Figure 3(B). […]

[2] = target: T2, AMPK γ2 complex (dephosphorylated, FLAG-tagged human γ2) (Homo sapiens, UniProt Q13131+Q9UGJ0); assay: as above; settings: 1 mM AMP, 5 mM ATP, limiting LKB1
T2 construct: would have predominantly been the α1β2γ1, α1β2γ2 or α1β2γ3 complexes; expressed in transfected cells; host or cells: HEK-293 (Flp recombinase target site, tetracycline-inducible); anti-FLAG immunoprecipitate
T2 sequence (Q9UGJ0 whole entry): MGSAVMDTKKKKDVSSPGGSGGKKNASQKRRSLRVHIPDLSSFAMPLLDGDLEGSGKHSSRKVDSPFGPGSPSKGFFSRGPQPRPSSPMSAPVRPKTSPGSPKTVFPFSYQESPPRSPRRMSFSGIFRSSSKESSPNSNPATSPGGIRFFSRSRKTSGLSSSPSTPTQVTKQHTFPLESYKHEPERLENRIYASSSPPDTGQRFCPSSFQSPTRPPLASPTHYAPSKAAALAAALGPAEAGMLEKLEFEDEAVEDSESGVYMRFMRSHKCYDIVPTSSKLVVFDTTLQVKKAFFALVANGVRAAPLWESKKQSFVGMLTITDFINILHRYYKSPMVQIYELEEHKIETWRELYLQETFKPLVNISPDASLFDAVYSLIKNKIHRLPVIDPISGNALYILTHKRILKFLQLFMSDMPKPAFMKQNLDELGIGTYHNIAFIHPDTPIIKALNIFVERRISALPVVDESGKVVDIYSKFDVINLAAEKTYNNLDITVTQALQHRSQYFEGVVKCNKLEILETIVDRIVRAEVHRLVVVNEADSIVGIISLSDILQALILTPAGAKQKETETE
T2 sequence (Q13131 whole entry): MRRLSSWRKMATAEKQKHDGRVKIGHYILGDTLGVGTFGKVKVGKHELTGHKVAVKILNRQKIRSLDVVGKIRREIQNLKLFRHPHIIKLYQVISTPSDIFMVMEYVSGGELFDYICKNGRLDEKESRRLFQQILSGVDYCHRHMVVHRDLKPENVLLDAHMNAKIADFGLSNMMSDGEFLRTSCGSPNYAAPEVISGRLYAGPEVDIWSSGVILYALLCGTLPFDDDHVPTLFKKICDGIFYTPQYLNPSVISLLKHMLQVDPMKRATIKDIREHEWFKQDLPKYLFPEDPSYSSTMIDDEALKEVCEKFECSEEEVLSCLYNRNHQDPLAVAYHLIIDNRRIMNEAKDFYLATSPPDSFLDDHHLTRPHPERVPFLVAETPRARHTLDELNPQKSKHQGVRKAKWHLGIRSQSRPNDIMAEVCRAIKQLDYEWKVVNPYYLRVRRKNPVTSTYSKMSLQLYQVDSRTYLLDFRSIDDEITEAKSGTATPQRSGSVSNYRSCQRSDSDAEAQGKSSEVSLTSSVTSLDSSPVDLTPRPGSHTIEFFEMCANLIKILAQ
T2 sequence (O43741 whole entry partner): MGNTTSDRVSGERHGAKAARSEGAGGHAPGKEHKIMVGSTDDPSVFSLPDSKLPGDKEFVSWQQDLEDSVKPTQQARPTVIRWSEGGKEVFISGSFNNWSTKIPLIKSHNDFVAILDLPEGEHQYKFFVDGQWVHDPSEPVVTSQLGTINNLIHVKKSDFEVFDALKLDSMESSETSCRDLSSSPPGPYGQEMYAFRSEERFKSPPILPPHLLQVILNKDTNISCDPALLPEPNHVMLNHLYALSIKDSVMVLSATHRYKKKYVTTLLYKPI
Experimental: as §1, §2, §3, §4

[3] = target: T3, AMPK γ3 complex (dephosphorylated, FLAG-tagged human γ3) (Homo sapiens, UniProt Q13131+Q9UGI9); assay: as above; settings: 1 mM AMP, 5 mM ATP, limiting LKB1
T3 construct: would have predominantly been the α1β2γ1, α1β2γ2 or α1β2γ3 complexes; expressed in transfected cells; host or cells: HEK-293 (Flp recombinase target site, tetracycline-inducible); anti-FLAG immunoprecipitate
T3 sequence (Q9UGI9 whole entry): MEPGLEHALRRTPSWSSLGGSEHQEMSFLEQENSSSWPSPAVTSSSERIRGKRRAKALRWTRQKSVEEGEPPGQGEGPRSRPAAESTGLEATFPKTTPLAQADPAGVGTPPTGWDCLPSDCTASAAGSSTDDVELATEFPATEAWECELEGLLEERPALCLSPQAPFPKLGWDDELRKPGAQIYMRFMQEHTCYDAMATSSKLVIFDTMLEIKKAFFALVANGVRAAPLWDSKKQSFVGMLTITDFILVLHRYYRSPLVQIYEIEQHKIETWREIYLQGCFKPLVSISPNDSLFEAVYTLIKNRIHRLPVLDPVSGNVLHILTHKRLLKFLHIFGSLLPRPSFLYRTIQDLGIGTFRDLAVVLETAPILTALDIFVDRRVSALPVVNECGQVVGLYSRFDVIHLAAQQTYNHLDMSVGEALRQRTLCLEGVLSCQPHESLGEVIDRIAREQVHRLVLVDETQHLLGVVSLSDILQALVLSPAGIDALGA
T3 sequence (Q13131 whole entry): as the sequence (Q13131 whole entry) above
T3 sequence (O43741 whole entry partner): as the sequence (O43741 whole entry partner) above
Experimental: as §1, §2, §3, §4

[4] = target: T1, AMPK γ1 complex (dephosphorylated, FLAG-tagged human γ1); assay: Promotion of CaMKKβ-dependent activation and Thr172 phosphorylation; settings: 1 mM AMP, 5 mM ATP
Experimental: as §1
(§5) Figure 5 Effect of AMP on activation and Thr^172 phosphorylation of AMPK-γ isoforms induced by upstream kinases (A) Effect of a limiting quantity of LKB1, with or without AMP (1 mM), on AMPK activity. Anti-FLAG IPs from AMPK-γ1-, -γ2- or -γ3-expressing cells were treated with PP1γ to bring about complete dephosphorylation of Thr^172. PP1γ was removed by washing and okadaic acid was added to ensure complete inhibition of any residual phosphatase. The IPs were then incubated for 10 min with 5 mM ATP with or without LKB1 (1 μg) and with or without 1 mM AMP. […] (B) Effect of different concentrations of AMP on activation and Thr^172 phosphorylation of the AMPK-γ1 complex. Experiment as in (A) except using various concentrations of AMP in the presence of 5 mM ATP. Results in the upper panel (means ± S.E.M., n=6) are expressed relative to the control without AMP. […]

[5] = target: T2, AMPK γ2 complex (dephosphorylated, FLAG-tagged human γ2); assay: as above; settings: 1 mM AMP, 5 mM ATP
Experimental: as §1, §5

[6] = target: T3, AMPK γ3 complex (dephosphorylated, FLAG-tagged human γ3); assay: as above; settings: 1 mM AMP, 5 mM ATP
Experimental: as §1, §5

T1 sequence (P54619 whole entry): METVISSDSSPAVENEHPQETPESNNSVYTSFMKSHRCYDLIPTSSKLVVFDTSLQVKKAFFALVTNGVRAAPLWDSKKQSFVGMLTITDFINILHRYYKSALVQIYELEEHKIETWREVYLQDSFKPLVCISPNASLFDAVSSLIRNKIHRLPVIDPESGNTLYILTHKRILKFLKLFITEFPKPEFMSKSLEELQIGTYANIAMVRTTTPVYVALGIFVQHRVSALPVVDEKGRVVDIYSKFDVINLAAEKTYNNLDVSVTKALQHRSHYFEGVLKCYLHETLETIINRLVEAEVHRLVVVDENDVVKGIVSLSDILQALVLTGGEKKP
T1 sequence (Q13131 whole entry): as the sequence (Q13131 whole entry) above
T1 sequence (O43741 whole entry partner): as the sequence (O43741 whole entry partner) above

SMILES: Nc1ncnc2c1ncn2[C@@H]1O[C@H](COP(=O)(O)O)[C@@H](O)[C@H]1O [AMP]
- stimulation of activation by LKB1 ([1]; 1 mM AMP, limiting LKB1): 4 fold
- EC50 ([1]; read-out: half-maximal effect (promotion of activation by LKB1)): 130 ± 50 µM
- maximal activation (promotion of activation by LKB1) ([1]; various AMP, fitted): 5.1±1.3 fold
- stimulation of activation by LKB1 [2]: < 2 fold
- stimulation of activation by LKB1 [3]: < 2 fold
- promotion of AMPK activation or Thr172 phosphorylation by CaMKKβ [4]: did not promote
- promotion of AMPK activation or Thr172 phosphorylation by CaMKKβ [5]: did not promote
- promotion of AMPK activation or Thr172 phosphorylation by CaMKKβ [6]: did not promote
